For data set [1], the system named is mycotoxicosis due to DON ingestion. Details: Stomach ulcer: key to the marks not given beside the values. The note with it: pig, in vivo.
For data set [2] the following is noted: pig, in vivo, 0.05 mg/kg.

From US20240024395A1 (priority 2020, published 2024) come the findings set out here.

Each structure is given as a SMILES string.

Regarding `CC1=C[C@H]2O[C@@H]3[C@H](O)C[C@](C)([C@@]2(CO)[C@H](O)C1=O)[C@]31CO1` [DON, deoxynivalenol], in data set [1], the “ADG1 average daily weight gain over the first 15 days of the challenge” value is 0.54, the “ADG average daily weight gain over the last 13 days of the challenge” value is 0.81, the Kidneys result is reported as “Pail” and the Liver colour result was “Pail”. In data set [1], the Stomach inflammation result is “++/−”; the Stomach ulcer entry was “++”; the “villus/crypt ratio, average” value is on record as 1.09. For the same compound, in data set [1] (po, 5.4 mg/kg), the weight begin came to 12.69 and the weight end stood at 31.75. In addition, in data set [2], the “AUC0→∞ of unbound DON” value turned out to be 187 ± 33 and the “Cmax of unbound DON” value is 30.8 ± 2.5.
